# Assay results reported in publication PMC4965013, “Open Source Drug Discovery with the Malaria Box Compound Collection for Neglected Diseases and Beyond” (PLoS Pathogens, 2016).
# Assays:
# P. falciparum = assay: EC50 listed in S2 Table Metabolomics (used to set the concentration tested); type: cell-based; settings: Plasmodium falciparum; EC50 used for Factor_XEC50 in metabolomics; read-out: EC50_nM
# [1] = tested on: P. falciparum 3D7 trophozoites; assay: Metabolomic fingerprint profiling LC-MS; type: cell-based, Plasmodium falciparum; set-up: UDP-D-glucose / ADP-D-glucose: unit not given here; settings: for Acetyllysine / N-acetyl-L-ornithine / N-carbamoyl-L-aspartate / NADPH / dAMP / dCMP / dTDP / dTMP / dTTP / dihydroorotate / orotate / DLH / DLS/SDL/SID / PD / PEE / PVNF / 3-phosphoglycerate / ADP-D-glucose / ATP / CDP / D-sedoheptulose-1/7-phosphate / FAD / GMP / NAD+ / NADP+ / Octoluse Bisphosphate / Pyroglutamic acid / UDP-D-glucose / UDP-D-glucuronate / UDP-N-acetyl-glucosamine / UDP / UMP / UTP / a-ketoglutarate / citrate/isocitrate / cytidine / dATP / dGMP/AMP / fumarate / glucose-1/6-phosphate / glycerate / guanine / guanosine / hypoxanthine / indole / inosine / nicotinate / ornithine / phosphoenolpyruvate / pyruvate / ribose-phosphate / sarcosine/alanine / sn-glycerol-3-phosphate / succinate/methylmalonic acid / uridine / xanthosine: S2 Table Metabolomics; for Acetyllysine: metabolite Acetyllysine; for N-acetyl-L-ornithine: metabolite N-acetyl-L-ornithine; for N-carbamoyl-L-aspartate: metabolite N-carbamoyl-L-aspartate; for NADPH: metabolite NADPH; for dAMP: metabolite dAMP; for dCMP: metabolite dCMP; for dTDP: metabolite dTDP; for dTMP: metabolite dTMP; for dTTP: metabolite dTTP; for dihydroorotate: metabolite dihydroorotate; for orotate: metabolite orotate; for DLH: peptide DLH; for DLS/SDL/SID: peptide DLS/SDL/SID; for PD: peptide PD; for PEE: peptide PEE; for PVNF: peptide PVNF; for 3-phosphoglycerate: metabolite 3-phosphoglycerate; for ADP-D-glucose: metabolite ADP-D-glucose; for ATP: metabolite ATP; for CDP: metabolite CDP; for CDP / D-sedoheptulose-1/7-phosphate / GMP / Octoluse Bisphosphate / UDP / UMP / UTP / citrate/isocitrate / dGMP/AMP / fumarate / glucose-1/6-phosphate / glycerate / guanine / guanosine / inosine / pyruvate / sarcosine/alanine / succinate/methylmalonic acid / uridine / xanthosine: change in metabolite level after compound treatment; for D-sedoheptulose-1/7-phosphate: metabolite D-sedoheptulose-1/7-phosphate; for FAD: metabolite FAD; for GMP: metabolite GMP; for NAD+: metabolite NAD+; for NADP+: metabolite NADP+; for Octoluse Bisphosphate: metabolite Octoluse Bisphosphate; for Pyroglutamic acid: metabolite Pyroglutamic acid; for UDP-D-glucose: metabolite UDP-D-glucose; for UDP-D-glucuronate: metabolite UDP-D-glucuronate; for UDP-N-acetyl-glucosamine: metabolite UDP-N-acetyl-glucosamine; for UDP: metabolite UDP; for UMP: metabolite UMP; for UTP: metabolite UTP; for a-ketoglutarate: metabolite a-ketoglutarate; for citrate/isocitrate: metabolite citrate/isocitrate; for cytidine: metabolite cytidine; for dATP: metabolite dATP; for dGMP/AMP: metabolite dGMP/AMP; for fumarate: metabolite fumarate; for glucose-1/6-phosphate: metabolite glucose-1/6-phosphate; for glycerate: metabolite glycerate; for guanine: metabolite guanine; for guanosine: metabolite guanosine; for hypoxanthine: metabolite hypoxanthine; for indole: metabolite indole; for inosine: metabolite inosine; for 2_3-Diphosphoglyceric acid / 4-phosphopantothenate / 6-phospho-D-gluconate / FMN / IMP / Pyrophosphate / Sedoheptoluse bisphosphate / cyclic-AMP / glutathione disulfide / lactate / myo-inositol: metabolite level change after treatment; for nicotinate: metabolite nicotinate; for ornithine: metabolite ornithine; for phosphoenolpyruvate: metabolite phosphoenolpyruvate; for pyruvate: metabolite pyruvate; for ribose-phosphate: metabolite ribose-phosphate; for sarcosine/alanine: metabolite sarcosine/alanine; for sn-glycerol-3-phosphate: metabolite sn-glycerol-3-phosphate; for succinate/methylmalonic acid: metabolite succinate/methylmalonic acid; for uridine: metabolite uridine; for xanthosine: metabolite xanthosine
smiles,measurement,setting,value
COc1cc(OC)c(N(C)C(=O)c2cc3c(s2)-c2ccccc2S(=O)(=O)C3)cc1Cl [MMV006427],EC50,P. falciparum,78.2 nM
same,Acetyllysine,[1],-3.0678
same,N-acetyl-L-ornithine,[1],-2.077
same,N-carbamoyl-L-aspartate,[1],-3.4047
same,NADPH,[1],-0.4646
same,dAMP,[1],2.306
same,dCMP,[1],1.395
same,dTDP,[1],3.378
same,dTMP,[1],4.553
same,dTTP,[1],1.85
same,dihydroorotate,[1],-2.575
same,orotate,[1],0.4264
same,DLH,[1],-5.058
same,DLS/SDL/SID,[1],-4.1926
same,PD,[1],-1.1837
same,PEE,[1],-3.666
same,PVNF,[1],-5.242
same,3-phosphoglycerate,[1],0.1517
same,ADP-D-glucose,[1],-0.124
same,ATP,[1],-1.807
same,CDP,[1],0.8052
same,D-sedoheptulose-1/7-phosphate,[1],-0.2773
same,FAD,[1],-1.0601
same,GMP,[1],-2.558
same,NAD+,[1],0.783
same,NADP+,[1],0.3092
same,Octoluse Bisphosphate,[1],-2.061
same,Pyroglutamic acid,[1],-0.1068
same,UDP-D-glucose,[1],0.214
same,UDP-D-glucuronate,[1],-0.1144
same,UDP-N-acetyl-glucosamine,[1],0.3636
same,UDP,[1],0.3063
same,UMP,[1],0.3348
same,UTP,[1],-0.8427
same,a-ketoglutarate,[1],-0.411
same,citrate/isocitrate,[1],0.0762
same,cytidine,[1],0.3423
same,dATP,[1],-0.2111
same,dGMP/AMP,[1],-0.9855
same,fumarate,[1],-0.3788
same,glucose-1/6-phosphate,[1],-0.5462
same,glycerate,[1],-0.8092
same,guanine,[1],0.1326
same,guanosine,[1],0.04127
same,hypoxanthine,[1],-0.06662
same,indole,[1],-0.3106
same,inosine,[1],0.06183
same,2_3-Diphosphoglyceric acid,[1],-0.9034
same,4-phosphopantothenate,[1],-0.1012
same,6-phospho-D-gluconate,[1],-0.09619
same,FMN,[1],0.1283
same,IMP,[1],0.7504
same,Pyrophosphate,[1],-1.05
same,Sedoheptoluse bisphosphate,[1],-0.7918
same,cyclic-AMP,[1],-0.9224
same,glutathione disulfide,[1],-0.1859
same,lactate,[1],-1.014
same,myo-inositol,[1],-1.304
same,nicotinate,[1],0.5771
same,ornithine,[1],0.02692
same,phosphoenolpyruvate,[1],0.2074
same,pyruvate,[1],-1.66
same,ribose-phosphate,[1],-0.6233
same,sarcosine/alanine,[1],-1.711
same,sn-glycerol-3-phosphate,[1],0.334
same,succinate/methylmalonic acid,[1],0.04426
same,uridine,[1],-0.5041
same,xanthosine,[1],-1.485
CCn1c(CN2CCN(Cc3ccccc3)CC2)nc2cc(NC(=O)c3cccs3)ccc21 [MMV020439],EC50,P. falciparum,512 nM
same,Acetyllysine,[1],0.7202
same,N-acetyl-L-ornithine,[1],1.173
same,N-carbamoyl-L-aspartate,[1],4.61
same,NADPH,[1],0.6182
same,dAMP,[1],-1.31
same,dCMP,[1],-0.04169
same,dTDP,[1],-1.17
same,dTMP,[1],-0.7966
same,dTTP,[1],-1.312
same,dihydroorotate,[1],4.909
same,orotate,[1],0.06984
same,DLH,[1],0.527
same,DLS/SDL/SID,[1],0.4749
same,PD,[1],0.8243
same,PEE,[1],1.011
same,PVNF,[1],0.2931
same,3-phosphoglycerate,[1],-0.2906
same,ADP-D-glucose,[1],0.1986
same,ATP,[1],-0.1401
same,CDP,[1],-0.619
same,D-sedoheptulose-1/7-phosphate,[1],0.1339
same,FAD,[1],0.2064
same,GMP,[1],-0.008752
same,NAD+,[1],-0.02079
same,NADP+,[1],0.1784
same,Octoluse Bisphosphate,[1],-0.1148
same,Pyroglutamic acid,[1],-0.1051
same,UDP-D-glucose,[1],-0.06605
same,UDP-D-glucuronate,[1],-0.1248
same,UDP-N-acetyl-glucosamine,[1],-0.297
same,UDP,[1],-1.2
same,UMP,[1],-1.107
same,UTP,[1],-1.42
same,a-ketoglutarate,[1],-0.8941
same,citrate/isocitrate,[1],-0.2089
same,cytidine,[1],0.004614
same,dATP,[1],0.08773
same,dGMP/AMP,[1],-0.284
same,fumarate,[1],0.6925
same,glucose-1/6-phosphate,[1],-0.2278
same,glycerate,[1],-0.4348
same,guanine,[1],0.1895
same,guanosine,[1],0.2428
same,hypoxanthine,[1],-0.1751
same,indole,[1],-0.1227
same,inosine,[1],-0.4694
same,2_3-Diphosphoglyceric acid,[1],-0.2253
same,4-phosphopantothenate,[1],-0.909
same,6-phospho-D-gluconate,[1],-0.007867
same,FMN,[1],-0.349
same,IMP,[1],-0.2804
same,Pyrophosphate,[1],-0.2048
same,Sedoheptoluse bisphosphate,[1],0.08493
same,cyclic-AMP,[1],-0.08461
same,glutathione disulfide,[1],-0.0242
same,lactate,[1],-0.4874
same,myo-inositol,[1],-0.8159
same,nicotinate,[1],-0.2742
same,ornithine,[1],-0.03081
same,phosphoenolpyruvate,[1],-0.3915
same,pyruvate,[1],-0.2887
same,ribose-phosphate,[1],-0.1311
same,sarcosine/alanine,[1],1.094
same,sn-glycerol-3-phosphate,[1],0.2993
same,succinate/methylmalonic acid,[1],0.5601
same,uridine,[1],0.2091
same,xanthosine,[1],-0.0525
